Format in all cases: cell-based
In test [1] the test system is Cystic fibrosis transmembrane conductance regulator (Homo sapiens), P13569 [F508del]. As to the kind of experiment: Corrector activity at CFTR F508del mutant (unknown origin) expressed in human CFBE41o- cells co-expressing halide-sensitive yellow fluorescent protein assessed as increase in iodide influx at 1 to 10 uM preincubated with compound for 24 hrs followed by compound washout and measured after 30 mins of stimulation with forskolin/genistein by fluorescence microplate reader. The note with it: dose 1-10 µM.
Cystic fibrosis transmembrane conductance regulator (Homo sapiens), P13569 [F508del], sequence (P13569 as listed by the source): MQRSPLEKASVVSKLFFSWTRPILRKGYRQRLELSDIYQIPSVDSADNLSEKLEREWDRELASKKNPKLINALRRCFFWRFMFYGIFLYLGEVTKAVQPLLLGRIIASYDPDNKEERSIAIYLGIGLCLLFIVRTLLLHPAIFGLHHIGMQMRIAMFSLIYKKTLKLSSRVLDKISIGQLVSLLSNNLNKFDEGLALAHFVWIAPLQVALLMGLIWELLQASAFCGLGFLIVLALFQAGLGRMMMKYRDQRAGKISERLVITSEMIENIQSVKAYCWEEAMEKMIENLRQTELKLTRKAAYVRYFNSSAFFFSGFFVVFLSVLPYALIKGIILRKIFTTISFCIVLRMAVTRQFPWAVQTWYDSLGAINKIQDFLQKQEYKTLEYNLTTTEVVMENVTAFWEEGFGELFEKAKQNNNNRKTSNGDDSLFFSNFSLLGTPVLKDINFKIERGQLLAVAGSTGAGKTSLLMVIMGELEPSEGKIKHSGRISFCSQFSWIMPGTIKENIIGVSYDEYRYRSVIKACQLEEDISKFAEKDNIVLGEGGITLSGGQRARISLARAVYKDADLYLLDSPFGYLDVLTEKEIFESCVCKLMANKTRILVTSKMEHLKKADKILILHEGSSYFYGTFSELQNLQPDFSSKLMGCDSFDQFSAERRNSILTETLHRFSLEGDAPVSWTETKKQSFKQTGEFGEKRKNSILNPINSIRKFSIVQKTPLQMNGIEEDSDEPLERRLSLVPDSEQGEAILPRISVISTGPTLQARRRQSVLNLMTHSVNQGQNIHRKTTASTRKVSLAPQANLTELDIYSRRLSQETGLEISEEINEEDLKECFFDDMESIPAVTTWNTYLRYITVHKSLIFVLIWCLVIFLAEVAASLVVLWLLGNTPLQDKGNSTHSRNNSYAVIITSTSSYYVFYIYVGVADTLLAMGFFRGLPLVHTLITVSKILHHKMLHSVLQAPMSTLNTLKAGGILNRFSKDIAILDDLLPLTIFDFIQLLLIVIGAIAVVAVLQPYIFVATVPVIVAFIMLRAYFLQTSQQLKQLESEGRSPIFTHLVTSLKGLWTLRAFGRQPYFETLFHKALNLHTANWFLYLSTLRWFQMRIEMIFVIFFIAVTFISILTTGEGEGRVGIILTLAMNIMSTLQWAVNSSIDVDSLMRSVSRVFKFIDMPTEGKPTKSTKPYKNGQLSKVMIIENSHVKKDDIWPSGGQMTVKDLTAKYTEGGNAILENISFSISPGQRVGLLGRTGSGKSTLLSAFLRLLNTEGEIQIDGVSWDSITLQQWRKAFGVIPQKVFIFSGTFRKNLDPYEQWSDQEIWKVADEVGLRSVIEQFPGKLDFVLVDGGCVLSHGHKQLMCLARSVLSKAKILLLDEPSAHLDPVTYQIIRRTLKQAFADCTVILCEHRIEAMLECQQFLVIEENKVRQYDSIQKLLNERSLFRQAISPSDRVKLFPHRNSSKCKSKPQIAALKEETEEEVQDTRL

Test [2] has the same test system. As to the kind of experiment: Corrector activity at CFTR F508del mutant (unknown origin) expressed in human CFBE41o- cells co-expressing halide-sensitive yellow fluorescent protein assessed as increase in iodide influx by measuring fold change preincubated with compound for 24 hrs in presence of VX-809 followed by compound washout and measured after 30 mins of stimulation with forskolin/genistein by fluorescence microplate reader relative to VX-809 alone. The settings on record: filed as activator.

The test system is the same in test [3]. As to the kind of experiment: Corrector activity at CFTR F508del mutant (unknown origin) expressed in human CFBE41o- cells co-expressing halide-sensitive yellow fluorescent protein assessed as increase in iodide influx at 10 uM preincubated with compound for 24 hrs in presence of VX-445 followed by compound washout and measured after 30 mins of stimulation with forskolin/genistein by fluorescence microplate reader.

The target in test [4] is T1, Cystic fibrosis transmembrane conductance regulator (Homo sapiens, UniProt P13569, F508DEL). As to the kind of experiment: Corrector activity at CFTR F508del mutant (unknown origin) expressed in human CFBE41o- cells co-expressing halide-sensitive yellow fluorescent protein assessed as increase in iodide influx preincubated with compound for 24 hrs in presence of VX-809 followed by compound washout and measured after 30 mins of stimulation with forskolin/genistein by fluorescence microplate reader.
T1 sequence (P13569 as listed by the source): as above

In test [5] the target is T1, Cystic fibrosis transmembrane conductance regulator. As to the kind of experiment: Corrector activity at CFTR F508del mutant (unknown origin) expressed in human CFBE41o- cells co-expressing halide-sensitive yellow fluorescent protein assessed as increase in iodide influx preincubated with compound for 24 hrs followed by compound washout and measured after 30 mins of stimulation with forskolin/genistein by fluorescence microplate reader.

Test [6] deals with Cystic fibrosis transmembrane conductance regulator (Homo sapiens), P13569 [F508del]. As to the kind of experiment: Corrector activity at CFTR F508del mutant (unknown origin) expressed in human CFBE41o- cells co-expressing halide-sensitive yellow fluorescent protein assessed as increase in iodide influx at 10 uM preincubated with compound for 24 hrs in presence of corr-4a followed by compound washout and measured after 30 mins of stimulation with forskolin/genistein by fluorescence microplate reader. The note with it: filed as activator.

Test [7] shares this test system. As to the kind of experiment: Corrector activity at CFTR F508del mutant (unknown origin) expressed in human CFBE41o- cells co-expressing halide-sensitive yellow fluorescent protein assessed as increase in iodide influx at 1 to 10 uM preincubated with compound for 24 hrs in presence of VX-809 followed by compound washout and measured after 30 mins of stimulation with forskolin/genistein by fluorescence microplate reader. The note with it: filed as activator, dose 1-10 µM.

The source made the active and inactive calls. No cut-off for these calls is given here.

`CCOC(=O)c1cc2c(n1Cc1cccc(Br)c1)-c1nc(NS(=O)(=O)c3ccccc3)ncc1CC2`: in test [1], the result was inactive.
The EC50 is the concentration needed to bring the measured effect to its halfway point. With `CCOC(=O)c1c(Br)c2c(n1Cc1cccc(Br)c1)-c1nc(NS(=O)(=O)c3ccccc3)ncc1CC2`, in test [2], the fold change (FC) is 2.3. Moreover, the result in test [1] (filed as activator), in test [6] and in test [7] was Active. In addition, the outcome in test [3] was inactive. Besides, the EC50 in test [4] worked out at 2120 nM; in test [5], 3080 nM.
For `CCOC(=O)c1c(Cl)c2c(n1Cc1cccc(C)c1)-c1nc(NS(=O)(=O)c3ccccc3)ncc1CC2`, the fold change (FC) in test [2] is 2.1. Moreover, the outcome in test [3] was inactive. The EC50 in test [4] turned out to be 1880 nM; in test [5], 3140 nM. The result in test [6] and in test [7] was Active.
On to `CCOC(=O)c1cc2c(n1Cc1cccc(C)c1)-c1nc(NS(=O)(=O)c3ccccc3)ncc1CC2`, for which, in test [7], the outcome was Active.
Take `Cc1cccc(Cn2c(C(=O)OC(C)C)c(Br)c3c2-c2nc(NS(=O)(=O)c4ccccc4)ncc2CC3)c1`: in test [7], the result was Active.
Take `CCOC(=O)c1c(Br)c2c(n1Cc1cccc(C)c1)-c1[nH]c(=O)c(S(=O)(=O)c3ccccc3)cc1CC2`: the fold change (FC) in test [2] amounted to 2.4. Further, the outcome in test [3] was inactive. Moreover, the EC50 stood at 450 nM in test [4] and 750 nM in test [5]. The result in test [6] was Active.
On to `CCOC(=O)c1c(Br)c2c(n1Cc1ccc(F)cc1)-c1nc(NS(=O)(=O)c3ccccc3)ncc1CC2`, for which the outcome in test [1] was inactive.
In the case of `CCOC(=O)c1c(Br)c2c(n1Cc1cccc(C)c1)-c1nc(NS(=O)(=O)c3ccccc3)ncc1CC2`, the outcome in test [7] was Active.
Take `CCOC(=O)c1c(Br)c2c(n1Cc1ccc(Br)cc1)-c1nc(NS(=O)(=O)c3ccccc3)ncc1CC2`: the result in test [1] was inactive. The result in test [7] was Active.
The like results for `CCOC(=O)c1c(Br)c2c(n1CC1CC1)-c1nc(NS(=O)(=O)c3ccccc3)ncc1CC2` were, in that order, “inactive” and “Active”.
Take `CCOC(=O)c1cc2c(n1Cc1ccc(C)cc1)-c1nc(NS(=O)(=O)c3ccccc3)ncc1CC2`: in test [1], the result was inactive.
Consider `CCOC(=O)c1c(Br)c2c(n1Cc1ccc(F)c(Br)c1)-c1nc(NS(=O)(=O)c3ccccc3)ncc1CC2`, for which the result in test [1] (filed as activator) and in test [7] was Active.
In the case of `CCOC(=O)c1cc2c(n1Cc1ccc(Br)cc1)-c1nc(NS(=O)(=O)c3ccccc3)ncc1CC2`, the result in test [1] was inactive.
For the molecule `CCOC(=O)c1c(Br)c2c(n1Cc1ccc(C)c(C)c1)-c1nc(NS(=O)(=O)c3ccccc3)ncc1CC2`, the result in test [1] (filed as activator) and in test [7] was Active.
Take `CCOC(=O)c1cc2c(n1Cc1ccc(F)c(Br)c1)-c1nc(NS(=O)(=O)c3ccccc3)ncc1CC2`: the outcome in test [1] (filed as activator) and in test [7] was Active.
For `CCOC(=O)c1cc2c(n1CC1CC1)-c1nc(NS(=O)(=O)c3ccccc3)ncc1CC2`, in test [1], the result was inactive.
Still for that read-out and setting: to `CCOC(=O)c1c(Br)c2c(n1Cc1ccc(C)cc1)-c1nc(NS(=O)(=O)c3ccccc3)ncc1CC2` belongs “inactive”.
